Data reported in US20250250559A1, “METHOD TO ANALYZE AND OPTIMIZE GENE EDITING MODULES AND DELIVERY APPROACHES” (Hoffmann-La Roche Inc., priority 2016, published 2025).
Values joined by “and” are separate entries in the source; they are usually repeats but may differ in a detail not shown here. Equal entries are not always repeated. “Also recorded” adds a separate entry of the source. Marks after values point to notes of the source that are not given here.

Legend:
Format in all cases: cell-based, human
[1] = system: DPH2 gene; assay: DT resistant colony count after DPH2 gene editing; settings: DPH2 assay (integr. vs. k.o.); for # of DT resistant colonies (40,000 seeded cells): MCF7, individual samples A-D
Protocol: (§1) MCF7 cells (Brooks, et al. 1973) were originally obtained from ATCC (subsequently propagated in an in-house cell bank) and maintained in RPMI […] medium supplemented with 10% FCS, 2 mM L-Glutamine and penicillin/streptomycin at 37° C. and 85% humidity. For transfection of plasmids harboring gene-editing modules, 3,000,000 cells were seeded in a 10 cm diameter culture dish and cultivated at 37° C. and humidified 5% CO2. 24 h after seeding, cells were transfected with 20 μg total DNA using JetPEI (Polyplus) according to the manufacturer's protocol but with an N/P ratio of 6:1. Transfection efficiency was determined after 24 h by flow cytometry (FACS Calibur, BD biosciences) of cells that were transfected with a modified eGFP expression plasmid (Zhang, et al. 1996).
(§2) Plasmids encoding CRISPR/Cas9 gene-editing entities (i.e. knock-out and integration systems) against Dph1 (gRNA target sequence: […] (SEQ ID NO: 01) derived from RefSeq: NM_001383) and Dph2 (gRNA target sequence: […] (SEQ ID NO: 02) derived from RefSeq: NM_001039589, NM_001384), and scrambled control (gRNA sequence: […] (SEQ ID NO: 03)) were obtained from OriGene. This system comprises one plasmid expressing a ˜100 nt gRNA under control of a U6 promoter as well as Cas9 nuclease under control of a CMV promoter and a Donor plasmid with a promoter-less GFP/PM expression cassette flanked by homologous arms to the target gene (Dph1 or Dph2). Additional Dph1 gRNA sequence variants of different sizes (OriGene) […]
(§3) MCF7 cells which have all chromosomal copies of DPH1 or DPH2 inactivated are resistant to diphtheria toxin (Stahl, et al. 2015). Thus, occurrence and frequency of toxin resistant cells/colonies upon CRISPR/Cas inflicted gene inactivation provides a measure for efficiency of inactivation of all gene copies. Therefore, MCF/cells were transfected as described in Example 1 with (i) a GFP expression plasmid as transfection control, (ii) the CRISPR/Cas9 Dph1 or Dph2 knock-out/integration system and (iii) knock-out/integration entities containing a scrambled gRNA to determine Cas9 independent integration frequencies. After determination of transfection efficiency, cells were seeded in 6-well plates. For quantification of homozygous knock-out events by DT 20000 cells were seeded and for quantification of integration events by PM or both events 40000 cells were seeded. RPMI medium was exchanged by RPMI medium containing DT or PM or both toxins 3 days after cell seeding. Exchange of medium was repeated every 2-3 days until all dead cells were removed from the plates and actively growing colonies could be detected via microscopic inspection. Thereafter (between day 12 and day 14 after start of toxin exposure), cells were washed 3 times with PBS and subsequently stained with ice cold methylene blue (0.2% in 50% EtOH). Methylene blue solution was subsequently removed and the plates were carefully washed under running water. Finally, cell colonies were counted under the microscope with a 5 mm grid foil.

[2] = system: DPH2 gene; assay: PM resistant colony count after DPH2 gene editing; settings: DPH2 assay (integr. vs. k.o.); for # of PM resistant colonies (40,000 seeded cells): MCF7, individual samples A-D
Protocol: as §1, §2, §3
CRISPR/Cas module for targeted integration contains a puromycin (PM) resistance gene expression cassette without promoter to avoid transient expression. Thus, detection of integration of recombinant sequences into the genome was detected by determining sensitivity of cells towards PM. A concentration of […] PM (which quantitatively eliminates wildtype MCF7 cells) was applied to select MCF7 cells with stably integrated expression cassettes. PM-resistant colonies selected with the same procedure as described above for the DT selection and visualized and quantified (between 12 and 14 days after start of selection) in the same manner as described above for toxin resistant colonies. Number of PM resistant colonies obtained with non-target guide sequences (scrambled gRNA, FIG. 1) reflect the nonspecific integration background. […]

[3] = system: MCF-7 cells; assay: DT resistant colony count of MCF-7 exposed to SCR7 and/or RS-1 during SpCas9-mediated DPH1 editing; settings: for mean DTr colonies #seeded cells: 40,000: SpCas9 Dph1 gRNA (20 mer), RS-1 8 μM, SCR7 1 μM; for mean DTr colonies #seeded cells: 40,000 / gRNA specific DT-r colonies (gRNA-scRNA) / Mean DT resistant colonies (4 × 40.000 seeded cells): compound added 4 hrs before transfection; for Mean DT resistant colonies (4 × 40.000 seeded cells): editing entity SpCas9-scRNA
Protocol: (§4) To evaluate and quantify the influence of DNA repair modulators on efficiency and specificity of gene editing, CRISPR/SpCAS9 and DPH1 targeting 20 mer gRNA was combined with compounds that modulate DNA repair mechanisms. The inhibitor Scr7 was applied either 4 hrs before transfection or 18 hrs after transfection of the gene editing modules until […] after transfection to inhibit DNA ligase IV.
SCR7 (1 μM final conc.) or RS-1 (8 μM final conc.) or SCR7+RS-1 (1 μM+8 μM final conc.) were added to MCF7 cells 4 hrs before transfection of the gene editing modules in the ‘early exposure’ setting. For ‘late exposure’ SCR7 (8 µM final conc.) or RS-1 (1 μM final conc.) were added to MCF7 cells 18 hrs after transfection. In both settings, cells were exposed to the modulators until 96 hr after transfection, i.e. ‘early exposure’ consisted of a treatment for a total of 100 hrs, ‘late exposure’ for a total of 78 hrs.
(§5) The system upon which to determine the effects of DNA repair modulators consisted of the CRISPR/SpCas9 modules with DPH1 20 mer gRNA, transfected into MCF7 cells and subjected to subsequent DT and PM selection as described in the previous Examples. Frequencies of DTr, PMr, and double-resistant colonies were recorded to reflect gene inactivation and cassette integration events.

[4] = system: MCF-7 cells; assay: PM resistant colony count of MCF-7 exposed to SCR7 and/or RS-1 during SpCas9-mediated DPH1 editing; settings: for mean PMr colonies #seeded cells: 80,000: SpCas9 Dph1 gRNA (20 mer); for mean PMr colonies #seeded cells: 80,000 / % PMr relative to DTr colonies: RS-1 8 μM, SCR7 1 μM; for % PMr relative to DTr colonies: SpCas9 Dph1 gRNA
Protocol: as §4
SCR7 (1 μM final conc.) or RS-1 (8 μM final conc.) or SCR7+RS-1 (1 μM+8 μM final conc.) were added to MCF7 cells 4 hrs before transfection of the gene editing modules in the ‘early exposure’ setting. […]
as §5

[5] = system: MCF7; assay: Viability (Promega CTG) assay; settings: 1 μM Scr7, 8 μM RS-1, 1 μM+8 μM combined
Protocol: The RAD51-stimulatory compound 1 (RS-1) was applied to modulate homologous recombination (HR) during gene editing. RS-1 (Sigma Aldrich) was dissolved in DMSO to generate a stock solution of 10 mg/ml, which was diluted in RPMI medium just before application to cells.
The DNA ligase IV inhibitor SCR7 was applied to modulate non-homologous end joining (NHEJ) during gene editing. SCR7 (Sigma) was dissolved in DMSO to generate a stock solution of 10 mg/ml, which was diluted in RPMI medium just before application to cells.

[6] = system: MCF-7 cells; assay: DT resistant colony count of MCF-7 exposed to SCR7 and/or RS-1 during SpCas9-mediated DPH1 editing; settings: SpCas9 Dph1 gRNA (20 mer); compound added 18 hrs after transfection; RS-1 8 μM, SCR7 1 μM
[7] = listed as Dph2 CRISPR Cas9 gRNA
[8] = compound added 4 hr before transfection
[9] = compound added 18 hr after transfection
[10] = compound added 4 hrs before transfection
[11] = compound added 18 hrs after transfection

20 mer SpCas9 Dph2 gRNA: Plasmids encoding SpCas9 and Dph2 gRNA (target GATGTTTAGCAGCCCTGCCG, SEQ ID NO: 02) plus donor plasmid
# of DT resistant colonies (40,000 seeded cells) (unheaded second sub-column: mean) ([1]; MCF7): 130
# of DT resistant colonies (40,000 seeded cells) [1]: 162 and 227 (2×) and 215
# of DT resistant colonies (40,000 seeded cells) [1, 7]: 162 and 227 (2×) and 215
# of PM resistant colonies (40,000 seeded cells) (unheaded second sub-column: mean) ([2]; MCF7): 1.5
# of PM resistant colonies (40,000 seeded cells) [2]: 0 (2×) and 1 and 3
# of PM resistant colonies (40,000 seeded cells) [2, 7]: 0 (2×) and 1 and 3

O=C(Nc1ccc(Br)cc1)c1ccc(Br)c(S(=O)(=O)NCc2ccccc2)c1 [RS-1, RAD51-stimulatory compound 1]
mean DTr colonies #seeded cells: 40,000 [3]: 201.5
% DT resistant colonies relative to untreated control [3, 8]: 100%
gRNA specific DT-r colonies (gRNA-scRNA) [3]: 201.5
% DT resistant colonies relative to untreated control [3, 9]: 100%
Mean DT resistant colonies (4 × 40.000 seeded cells) [3]: 0
mean PMr colonies #seeded cells: 80,000 [4, 10]: 14
mean PMr colonies #seeded cells: 80,000 [4, 11]: 15.3
% PMr relative to DTr colonies [4, 11]: 3.0%
% PM resistant colonies relative to untreated control [4, 8]: 165%*
gRNA specific PM-r colonies (gRNA-scRNA) [4, 10]: 10.2
% PM resistant colonies relative to untreated control [4, 9]: 76%
effect on the growth or viability of MCF7 cells at the applied dose [5]: no effect on the growth or viability; also recorded: does not inflict growth inhibitory or toxic effects
mean DTr colonies #seeded cells: 40,000 [6]: 512.5

SCR7
mean DTr colonies #seeded cells: 40,000 [3]: 205.3
% DT resistant colonies relative to untreated control [3, 8]: 102%
gRNA specific DT-r colonies (gRNA-scRNA) [3]: 205.3
% DT resistant colonies relative to untreated control [3, 9]: 95%*
Mean DT resistant colonies (4 × 40.000 seeded cells) [3]: 0
mean PMr colonies #seeded cells: 80,000 [4, 10]: 13.3
mean PMr colonies #seeded cells: 80,000 [4, 11]: 25
% PMr relative to DTr colonies [4, 11]: 5.1%
increase of the number of PMr colonies compared to untreated control ([4]; compound 4 hrs before until 72 hr after transfection): approx. 2 fold
% PM resistant colonies relative to untreated control [4, 8]: 156%*
gRNA specific PM-r colonies (gRNA-scRNA) [4, 10]: 9.5
% PM resistant colonies relative to untreated control [4, 9]: 125%
effect on the growth or viability of MCF7 cells at the applied dose [5]: does not inflict growth inhibitory or toxic effects
effect on the growth or viability of MCF7 cells at the applied dose ([5]; listed as Scr7): no effect on the growth or viability
mean DTr colonies #seeded cells: 40,000 [6]: 488.8
